Source: ChEMBL document CHEMBL1201862, “PubChem BioAssay data set” (2004)
Active and inactive are the calls of the source.

Legend:
[1] = biological target: T1, Replicative DNA helicase DnaB (Mycobacterium tuberculosis, UniProt P9WMR3); test: DnaB intein splicing inhibitors, dose response, biochemical, cell-free fluorescence (AID 449749); format: functional
T1 sequence (P9WMR3 whole entry): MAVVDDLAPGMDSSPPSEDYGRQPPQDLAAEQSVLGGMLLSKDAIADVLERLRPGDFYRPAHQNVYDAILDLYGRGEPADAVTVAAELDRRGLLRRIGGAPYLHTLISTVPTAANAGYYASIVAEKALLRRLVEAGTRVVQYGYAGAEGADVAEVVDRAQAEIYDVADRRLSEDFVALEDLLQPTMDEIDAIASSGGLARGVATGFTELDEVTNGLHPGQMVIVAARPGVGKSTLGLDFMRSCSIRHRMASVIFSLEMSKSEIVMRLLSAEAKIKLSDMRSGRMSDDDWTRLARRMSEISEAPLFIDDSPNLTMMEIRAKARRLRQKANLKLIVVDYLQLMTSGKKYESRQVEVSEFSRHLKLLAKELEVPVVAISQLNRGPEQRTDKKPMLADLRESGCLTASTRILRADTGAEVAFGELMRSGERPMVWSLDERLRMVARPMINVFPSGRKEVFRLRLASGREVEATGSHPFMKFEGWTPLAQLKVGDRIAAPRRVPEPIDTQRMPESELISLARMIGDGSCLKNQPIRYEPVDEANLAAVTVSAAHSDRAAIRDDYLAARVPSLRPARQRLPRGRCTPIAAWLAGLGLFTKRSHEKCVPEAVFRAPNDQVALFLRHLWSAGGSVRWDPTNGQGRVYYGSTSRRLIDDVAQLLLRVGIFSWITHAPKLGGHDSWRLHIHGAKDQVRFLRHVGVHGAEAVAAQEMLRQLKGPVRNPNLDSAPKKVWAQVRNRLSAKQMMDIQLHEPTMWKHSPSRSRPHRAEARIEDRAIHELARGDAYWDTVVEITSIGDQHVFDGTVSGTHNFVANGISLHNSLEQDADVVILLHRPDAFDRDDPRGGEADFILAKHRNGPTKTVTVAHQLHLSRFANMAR

[2] = biological target: T2, Sphingosine 1-phosphate receptor 4 (Homo sapiens, UniProt O95977); test: Fluorescence dose response cell-based high throughput screening assay for antagonists of the Sphingosine 1-Phosphate Receptor 4 (S1P4). [Related pubchem assays: 1524 (Confirmation in triplicates.), 1510 (Primary screen.)]; format: functional
T2 sequence (O95977 whole entry): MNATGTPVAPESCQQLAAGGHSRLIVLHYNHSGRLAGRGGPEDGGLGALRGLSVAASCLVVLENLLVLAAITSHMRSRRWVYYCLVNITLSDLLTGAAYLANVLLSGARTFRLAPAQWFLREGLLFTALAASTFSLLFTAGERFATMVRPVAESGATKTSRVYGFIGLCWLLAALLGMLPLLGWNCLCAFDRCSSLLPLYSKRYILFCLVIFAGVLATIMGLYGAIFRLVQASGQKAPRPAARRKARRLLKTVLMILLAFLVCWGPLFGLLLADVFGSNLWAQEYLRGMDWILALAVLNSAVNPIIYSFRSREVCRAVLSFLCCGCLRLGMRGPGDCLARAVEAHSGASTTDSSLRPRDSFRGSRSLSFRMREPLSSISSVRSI

[3] = HEK-293T viability loss after treatment – luminescence, T-cell screen hits, cytotoxicity control for TCR NF-kB inhibitor project, dose response (AID 489026); format: functional, cell-based;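 note: cells exposed to compound about 14 hours before the viability readout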
[4] = reduction of Shn3 3'UTR-driven luciferase in osteoblasts – cell-based, Clone20 osteoblasts, firefly luciferase, cherry-picked, dose response (AID 624132); format: functional;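 note: firefly luciferase luminescence from reporter carrying the Shn3 3'UTR in osteoblasts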
[5] = biological target: Sphingosine 1-phosphate receptor 1 (Homo sapiens, UniProt P21453); format: functional;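 note: Tango beta-arrestin reporter U2OS cells stimulated with S1P near its EC80; inhibitor potency meaning antagonism of receptor activation by the natural agonist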
CHO = CHO cell viability loss, potency – luminescence, cytotoxicity control for TLR9-MyD88 binding inhibitor project, dose response (AID 588339); format: functional, cell-based, hamster; details: Cricetulus griseus;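 note: CHO cells stably coexpressing TLR9 and MyD88 fusions from primary screen; compound exposure lasted 48 hours before viability readout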
[6] = biological target: Sphingosine 1-phosphate receptor 2 (Homo sapiens, UniProt O95136); test: Dose Response Cell Based Assay for Antagonists of the S1P2 Receptor. [Related pubchem assays: 856, 736 ]; format: functional
Beta Lactamase = Beta Lactamase (Pseudomonas aeruginosa, UniProt Q932Y6); test: BLA reporter interference, concentration series – BLA reporter cells, FRET fluorescence, artefact control for TLR9-MyD88 binding inhibitor project, dose response (AID 588341); format: cell-based;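 note: cell based assay in CHO-K1 cells stably expressing beta-lactamase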
[7] = non-specific 3'UTR reporter inhibition in Clone20-Shn3RL – cell-based, Renilla luciferase, cherry-picked, counter-screen for Shn3 inhibitor project, dose response (AID 624133); format: functional
Protein RecA = biological target: T3, Protein RecA (Mycobacterium tuberculosis, UniProt P9WHJ3); test: Fluorescence Cell-Free Homogeneous Dose Retest to Identify Inhibitors of RecA-Intein Splicing Activity. [Related pubchem assays (depositor defined):AID2097, AID2223, AID489010, AID492950]; format: functional
T3 sequence (P9WHJ3 whole entry): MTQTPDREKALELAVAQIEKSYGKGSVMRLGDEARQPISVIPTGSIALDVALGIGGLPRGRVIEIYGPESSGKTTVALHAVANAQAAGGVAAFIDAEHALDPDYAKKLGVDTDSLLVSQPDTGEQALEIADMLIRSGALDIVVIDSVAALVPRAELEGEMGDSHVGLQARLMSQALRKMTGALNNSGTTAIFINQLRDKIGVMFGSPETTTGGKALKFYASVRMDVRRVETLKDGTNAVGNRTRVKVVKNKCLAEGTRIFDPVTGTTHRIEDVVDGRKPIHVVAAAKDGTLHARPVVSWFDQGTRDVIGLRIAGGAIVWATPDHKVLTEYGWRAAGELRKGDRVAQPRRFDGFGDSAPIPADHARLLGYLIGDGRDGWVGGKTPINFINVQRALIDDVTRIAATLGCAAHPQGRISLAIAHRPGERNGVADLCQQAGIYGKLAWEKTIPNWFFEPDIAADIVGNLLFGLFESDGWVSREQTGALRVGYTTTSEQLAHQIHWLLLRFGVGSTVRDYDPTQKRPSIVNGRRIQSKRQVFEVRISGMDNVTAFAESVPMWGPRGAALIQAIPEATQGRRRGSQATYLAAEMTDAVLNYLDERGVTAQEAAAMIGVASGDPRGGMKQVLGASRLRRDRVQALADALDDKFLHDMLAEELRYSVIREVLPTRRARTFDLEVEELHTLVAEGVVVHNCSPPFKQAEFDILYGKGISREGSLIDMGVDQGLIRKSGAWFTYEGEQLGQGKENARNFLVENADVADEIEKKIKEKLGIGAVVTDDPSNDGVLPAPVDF

[8] = loss of viability in HepG2 cells – cell-based, CellTiter-Glo, cherry-picked, cytotoxicity control for Shn3 inhibitor project, dose response (AID 624134); format: functional
[9] = biological target: T4, Sentrin-specific protease 6 (Homo sapiens, UniProt Q9GZR1); test: SAR Analysis of small molecule inhibitors of Sentrin-specific protease 6 (SENP6) using a Luminescent assay. [Related pubchem assays (depositor defined):AID2582, AID2599]; format: functional
T4 sequence (Q9GZR1 whole entry): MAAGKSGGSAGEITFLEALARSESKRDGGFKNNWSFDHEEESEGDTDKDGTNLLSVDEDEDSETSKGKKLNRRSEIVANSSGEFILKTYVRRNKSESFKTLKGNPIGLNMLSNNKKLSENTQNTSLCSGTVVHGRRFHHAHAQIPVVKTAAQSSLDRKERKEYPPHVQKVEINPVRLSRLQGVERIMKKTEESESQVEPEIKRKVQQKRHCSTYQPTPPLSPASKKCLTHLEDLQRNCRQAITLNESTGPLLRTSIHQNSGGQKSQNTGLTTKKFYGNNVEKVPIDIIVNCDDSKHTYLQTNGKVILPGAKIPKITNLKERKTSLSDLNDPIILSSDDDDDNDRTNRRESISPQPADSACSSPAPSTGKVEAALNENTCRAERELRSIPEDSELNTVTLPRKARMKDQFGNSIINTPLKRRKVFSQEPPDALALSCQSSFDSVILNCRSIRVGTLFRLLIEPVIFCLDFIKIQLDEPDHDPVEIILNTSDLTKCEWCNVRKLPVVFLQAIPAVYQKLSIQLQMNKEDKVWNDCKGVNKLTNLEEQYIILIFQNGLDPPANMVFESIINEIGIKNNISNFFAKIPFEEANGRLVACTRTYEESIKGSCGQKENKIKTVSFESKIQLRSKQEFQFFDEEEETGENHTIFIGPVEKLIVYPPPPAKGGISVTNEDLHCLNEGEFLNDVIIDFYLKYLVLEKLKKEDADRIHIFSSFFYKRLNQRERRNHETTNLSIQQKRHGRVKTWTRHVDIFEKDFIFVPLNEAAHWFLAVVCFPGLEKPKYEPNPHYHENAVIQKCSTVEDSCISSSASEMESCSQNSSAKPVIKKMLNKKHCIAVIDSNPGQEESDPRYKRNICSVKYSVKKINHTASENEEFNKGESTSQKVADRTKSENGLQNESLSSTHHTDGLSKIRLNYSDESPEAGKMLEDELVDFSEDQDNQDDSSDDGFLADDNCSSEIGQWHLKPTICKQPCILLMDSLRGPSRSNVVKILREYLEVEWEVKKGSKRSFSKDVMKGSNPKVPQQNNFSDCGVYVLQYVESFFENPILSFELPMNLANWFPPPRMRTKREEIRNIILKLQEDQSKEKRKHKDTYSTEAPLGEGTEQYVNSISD

[10] = biological target: T5, Sentrin-specific protease 8 (Homo sapiens, UniProt Q96LD8); test: inhibition of human SENP8 cleavage activity – biochemical, luminescence, SAR follow-up (AID 504501); format: functional
T5 sequence (Q96LD8 whole entry): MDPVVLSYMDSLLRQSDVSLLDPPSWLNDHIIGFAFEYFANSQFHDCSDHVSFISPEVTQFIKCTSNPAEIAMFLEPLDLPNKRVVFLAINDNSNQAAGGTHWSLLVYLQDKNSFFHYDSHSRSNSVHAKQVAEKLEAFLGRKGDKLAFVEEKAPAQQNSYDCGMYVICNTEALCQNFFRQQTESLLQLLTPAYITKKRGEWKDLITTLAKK

[11] = biological target: T6, Sentrin-specific protease 7 (Homo sapiens, UniProt Q9BQF6); test: inhibition of human SENP7 cleavage activity – biochemical, luminescence, SAR follow-up (AID 504497); format: functional
T6 sequence (Q9BQF6 whole entry): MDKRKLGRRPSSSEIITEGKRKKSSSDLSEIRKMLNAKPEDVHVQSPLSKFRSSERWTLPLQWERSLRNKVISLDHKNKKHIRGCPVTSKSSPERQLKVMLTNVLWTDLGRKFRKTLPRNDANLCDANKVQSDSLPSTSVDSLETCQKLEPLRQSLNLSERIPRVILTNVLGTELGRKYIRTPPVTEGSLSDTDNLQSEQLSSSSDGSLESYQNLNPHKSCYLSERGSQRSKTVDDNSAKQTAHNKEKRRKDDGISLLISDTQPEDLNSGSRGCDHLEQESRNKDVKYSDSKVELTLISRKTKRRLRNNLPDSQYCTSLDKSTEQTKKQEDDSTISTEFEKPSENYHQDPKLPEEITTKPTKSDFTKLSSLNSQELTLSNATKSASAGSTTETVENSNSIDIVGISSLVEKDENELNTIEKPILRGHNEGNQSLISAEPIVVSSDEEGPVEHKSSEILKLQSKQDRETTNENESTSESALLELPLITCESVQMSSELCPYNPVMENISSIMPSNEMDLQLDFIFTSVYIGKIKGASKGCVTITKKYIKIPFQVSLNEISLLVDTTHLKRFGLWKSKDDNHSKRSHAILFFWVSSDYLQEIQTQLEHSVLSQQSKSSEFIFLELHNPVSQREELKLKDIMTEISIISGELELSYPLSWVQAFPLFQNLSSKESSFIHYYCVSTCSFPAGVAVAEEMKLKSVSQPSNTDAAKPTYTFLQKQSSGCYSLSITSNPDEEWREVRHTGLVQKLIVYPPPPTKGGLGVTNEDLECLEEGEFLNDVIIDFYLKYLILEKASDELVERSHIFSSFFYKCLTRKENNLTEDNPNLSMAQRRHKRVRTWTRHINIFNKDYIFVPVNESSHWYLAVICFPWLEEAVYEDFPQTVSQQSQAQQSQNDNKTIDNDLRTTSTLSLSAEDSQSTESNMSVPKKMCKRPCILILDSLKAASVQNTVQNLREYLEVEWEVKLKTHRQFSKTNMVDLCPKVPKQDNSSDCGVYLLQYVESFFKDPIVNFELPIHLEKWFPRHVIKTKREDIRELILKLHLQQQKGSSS

Caspase-3 = biological target: T7, Caspase-3 (Homo sapiens, UniProt P42574); test: SAR Analysis of small molecule inhibitors of Sentrin-specific proteases (SENPs) using a Caspase-3 Selectivity assay. [Related pubchem assays (depositor defined):AID2540, AID2599, AID434973, AID489001]; format: functional
T7 sequence (P42574 whole entry): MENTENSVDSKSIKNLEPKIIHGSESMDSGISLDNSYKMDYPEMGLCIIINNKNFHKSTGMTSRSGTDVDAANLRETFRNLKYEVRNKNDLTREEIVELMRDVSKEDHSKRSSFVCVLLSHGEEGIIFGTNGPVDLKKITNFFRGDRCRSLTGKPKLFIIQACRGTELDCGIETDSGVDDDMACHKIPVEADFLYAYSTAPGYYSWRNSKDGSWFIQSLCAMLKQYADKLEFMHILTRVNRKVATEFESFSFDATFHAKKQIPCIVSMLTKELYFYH

Sequence of Sphingosine 1-phosphate receptor 1 (P21453 whole entry, the tested form may be a part): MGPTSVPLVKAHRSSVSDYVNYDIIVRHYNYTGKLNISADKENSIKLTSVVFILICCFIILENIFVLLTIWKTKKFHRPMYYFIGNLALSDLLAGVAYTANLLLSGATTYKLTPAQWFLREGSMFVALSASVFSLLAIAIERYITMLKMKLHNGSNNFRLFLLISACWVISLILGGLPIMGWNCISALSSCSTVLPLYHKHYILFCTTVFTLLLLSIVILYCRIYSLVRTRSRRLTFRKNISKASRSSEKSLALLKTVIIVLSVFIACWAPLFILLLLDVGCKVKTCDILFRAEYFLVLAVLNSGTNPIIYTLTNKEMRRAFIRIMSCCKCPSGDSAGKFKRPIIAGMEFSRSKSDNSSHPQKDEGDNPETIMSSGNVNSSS
Sequence of Sphingosine 1-phosphate receptor 2 (O95136 whole entry): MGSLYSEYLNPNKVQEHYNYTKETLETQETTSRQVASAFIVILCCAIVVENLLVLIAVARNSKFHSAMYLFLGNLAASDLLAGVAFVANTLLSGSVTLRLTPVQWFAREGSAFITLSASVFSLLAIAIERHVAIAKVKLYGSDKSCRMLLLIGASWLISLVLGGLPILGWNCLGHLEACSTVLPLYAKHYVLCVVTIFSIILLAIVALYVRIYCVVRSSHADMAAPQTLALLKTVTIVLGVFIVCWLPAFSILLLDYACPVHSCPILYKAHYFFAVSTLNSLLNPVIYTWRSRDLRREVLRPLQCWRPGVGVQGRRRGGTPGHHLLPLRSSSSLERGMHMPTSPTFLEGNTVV
Sequence of Beta Lactamase (Q932Y6 whole entry): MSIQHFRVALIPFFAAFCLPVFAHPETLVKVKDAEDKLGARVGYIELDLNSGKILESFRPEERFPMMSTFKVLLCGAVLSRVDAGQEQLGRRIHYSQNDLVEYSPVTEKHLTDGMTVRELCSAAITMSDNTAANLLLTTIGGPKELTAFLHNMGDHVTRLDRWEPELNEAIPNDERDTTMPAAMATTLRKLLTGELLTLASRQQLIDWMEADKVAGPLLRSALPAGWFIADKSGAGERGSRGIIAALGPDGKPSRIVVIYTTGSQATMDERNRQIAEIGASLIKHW

**Q.** With `COc1ccc(CS(=O)(=O)/C(Cl)=C(/Cl)C(=O)Nc2ccc(OC)nc2)cc1` as the compound, how does the AC50 [1] read?
**A.** 3.88 µM (active)

**Q.** What about the IC50 [2] of the same compound?
**A.** 0.852 µM (active)

**Q.** What about the IC50 [3] of the same compound?
**A.** 27.9 µM (inactive)

**Q.** And the AC50 [4]?
**A.** < 0.26 µM (active)

**Q.** What about the IC50 [5] of the same compound?
**A.** 6.21 µM (active)

**Q.** And the IC50 (CHO)?
**A.** 2.03 µM (active)

**Q.** What about the IC50 [6] of the same compound?
**A.** 1.67 µM (active)

**Q.** And the IC50 (Beta Lactamase)?
**A.** > 49.7 µM (inactive)

**Q.** And the AC50 [7]?
**A.** 6.84 µM (active)

**Q.** What about the EC50 (Protein RecA) of the same compound?
**A.** 3.34 µM (active)

**Q.** What about the AC50 [8] of the same compound?
**A.** 10.6 µM (active)

**Q.** Which results are given for `CCOc1ccc2nc(NC(=O)c3nc(SC(C)C)ncc3Cl)sc2c1`?
**A.** IC50 [9]: > 99 µM (inactive); IC50 [10]: > 99 µM (inactive); IC50 [11]: > 99 µM (inactive); IC50 (Caspase-3): > 99 µM (inactive)
